Measurements from patent US9686988B2, “Pesticidal compounds based on arylthiosulfonamide derivatives” (Syngenta Participations AG, priority 2012, dated 2017).

What was measured:
Format in all cases: in vivo
[1] = test system: Spodoptera littoralis; assay: Spodoptera littoralis (Egyptian cotton leaf worm), cotton leaf disc spray test; conditions: foliar, 72 h, application rate of 200 ppm, mortality, anti-feedant effect, growth inhibition 3 days after infestation, L1 larvae
Method: Spodoptera littoralis (Egyptian Cotton Leaf Worm)
Cotton leaf discs were placed on agar in 24-well microtiter plates and sprayed with aqueous test solutions prepared from 10′000 ppm DMSO stock solutions. After drying the leaf discs were infested with five L1 larvae. The samples were assessed for mortality, anti-feedant effect, and growth inhibition 3 days after infestation. Control of Spodoptera littoralis by a test sample is noted when at least one of mortality, anti-feedant effect, and growth inhibition is better than the untreated sample.

[2] = test system: Heliothis virescens; assay: Heliothis virescens (tobacco budworm), eggs on artificial diet; conditions: 120 h, application rate of 200 ppm, egg mortality, larval mortality, growth inhibition 5 days after infestation
Method: Heliothis virescens (Tobacco Budworm):
Eggs (0-24 h old) were placed in 24-well microtiter plates on artificial diet and treated with aqueous test solutions prepared from 10′000 ppm DMSO stock solutions by pipetting. The samples were assessed for egg mortality, larval mortality and growth inhibition 5 days after infestation. Control of Heliothis virescens by a test sample is noted when at least one of egg mortality, larval mortality and growth inhibition is better than the untreated sample.

[3] = test system: Plutella xylostella; assay: Plutella xylostella (diamond back moth), L2 larvae on artificial diet; conditions: 120 h, application rate of 200 ppm, mortality and growth inhibition 5 days after infestation
Method: Plutella xylostella (Diamond Back Moth):
(§1) 24-well microtiter plates with artificial diet were treated with aqueous test solutions prepared from 10′000 ppm DMSO stock solutions by pipetting. After drying, the plates were infested with L2 larvae (10 to 15 per well). The samples were assessed for mortality and growth inhibition 5 days after infestation. Control of Plutella xyllostella by a test sample is noted when at least one of mortality and growth inhibition is better than the untreated sample.

[4] = test system: Diabrotica balteata; assay: Diabrotica balteata (corn rootworm), L2 larvae on artificial diet; conditions: 120 h, application rate of 200 ppm, mortality and growth inhibition 5 days after infestation
Method: Diabrotica balteata (Corn Rootworm):
as §1, with “(6” for “(10”, “10” for “15”, “Diabrotica balteata” for “Plutella xyllostella”

[5] = test system: Thrips tabaci; assay: Thrips tabaci (onion thrips), sunflower leaf disc spray test; conditions: foliar, 144 h, application rate of 200 ppm, mortality 6 days after infestation, mixed ages
Method: Thrips tabaci (Onion Thrips):
(§2) Sunflower leaf discs were placed on agar in 24-well microtiter plates and sprayed with aqueous test solutions prepared from 10′000 ppm DMSO stock solutions. After drying the leaf discs were infested with a thrips population of mixed ages. The samples were assessed for mortality 6 days after infestation.

[6] = test system: Tetranychus urticae; assay: Tetranychus urticae (two-spotted spider mite), bean leaf disc spray test; conditions: foliar, 192 h, application rate of 200 ppm, mortality (mobile stages) 8 days after infestation, mixed ages
Method: Tetranychus urticae (Two-Spotted Spider Mite):
as §2, with “Bean” for “Sunflower”, “discs” for “discs were placed”, “were” for “and”, “mite” for “thrips”, “(mobile stages) 8” for “6”

[7] = test system: Myzus persicae; assay: Myzus persicae (green peach aphid), sunflower leaf disc spray test; conditions: foliar, 144 h, read-out: mortality of Myzus persicae
Method: Myzus persicae (Green Peach Aphid):
Sunflower leaf discs were placed on agar in a 24-well microtiter plate and sprayed with aqueous test solutions prepared from 10′000 ppm DMSO stock solutions. After drying, the leaf discs were infested with an aphid population of mixed ages. The samples were assessed for mortality 6 days after infestation.

[8] = test system: Diabrotica balteata; assay: Diabrotica balteata (corn rootworm), sprayed maize sprouts; conditions: 96 h, application rate of 200 ppm, 4 days after infestation, L2 larvae
Method: Diabrotica balteata, (Corn Rootworm)
Maize sprouts, placed on an agar layer in 24-well microtiter plates were treated with aqueous test solutions prepared from 10′000 ppm DMSO stock solutions by spraying. After drying, the plates were infested with L2 larvae (6 to 10 per well). The samples were assessed for mortality 4 days after infestation.

NS(=O)(=O)CSc1ccc(C2=NOC(c3cc(Cl)cc(Cl)c3)(C(F)(F)F)C2)cc1Br (stereo not shown) [Compound A1, [2-bromo-4-[5-(3,5-dichlorophenyl)-5-(trifluoromethyl)-4H-isoxazol-3-yl]phenyl]sulfanylmethanesulfonamide]
≥ 80%: pest or weed control at 200 ppm [1] | pest or weed control at 200 ppm [2] | pest or weed control at 200 ppm [3] | pest or weed control at 200 ppm [4] | pest or weed control at 200 ppm [5] | pest or weed control at 200 ppm [6]

CCN(CC)S(=O)(=O)CSc1ccc(C2=NOC(c3cc(Cl)cc(Cl)c3)(C(F)(F)F)C2)cc1Br (stereo not shown) [Compound A2, 1-[2-bromo-4-[5-(3,5-dichlorophenyl)-5-(trifluoromethyl)-4H-isoxazol-3-yl]phenyl]sulfanyl-N,N-diethyl-methanesulfonamide]
≥ 80%: pest or weed control at 200 ppm [1] | pest or weed control at 200 ppm [2] | pest or weed control at 200 ppm [3] | pest or weed control at 200 ppm [4] | pest or weed control at 200 ppm [5] | pest or weed control at 200 ppm [6]

CCNS(=O)(=O)CSc1ccc(C2=NOC(c3cc(Cl)cc(Cl)c3)(C(F)(F)F)C2)cc1Br (stereo not shown) [Compound A3, 1-[2-bromo-4-[5-(3,5-dichlorophenyl)-5-(trifluoromethyl)-4H-isoxazol-3-yl]phenyl]sulfanyl-N-ethyl-methanesulfonamide]
≥ 80%: pest or weed control at 200 ppm [1] | pest or weed control at 200 ppm [2] | pest or weed control at 200 ppm [3] | pest or weed control at 200 ppm [4] | mortality at 200 ppm [7] | pest or weed control at 200 ppm [5] | pest or weed control at 200 ppm [6]

NS(=O)(=O)CS(=O)(=O)c1ccc(C2=NOC(c3cc(Cl)cc(Cl)c3)(C(F)(F)F)C2)cc1Br (stereo not shown) [Compound A4, [2-bromo-4-[5-(3,5-dichlorophenyl)-5-(trifluoromethyl)-4H-isoxazol-3-yl]phenyl]sulfonylmethanesulfonamide]
≥ 80%: pest or weed control at 200 ppm [1] | pest or weed control at 200 ppm [2] | pest or weed control at 200 ppm [3] | pest or weed control at 200 ppm [4] | pest or weed control at 200 ppm [6]

CCNS(=O)(=O)CSc1ccc(C2=NO[C@@](c3cc(Cl)cc(Cl)c3)(C(F)(F)F)C2)cc1Br [Compound B1, 1-[2-bromo-4-[(5S)-5-(3,5-dichlorophenyl)-5-(trifluoromethyl)-4H-isoxazol-3-yl]phenyl]sulfanyl-N-ethyl-methanesulfonamide]
≥ 80%: pest or weed control at 200 ppm [1] | pest or weed control at 200 ppm [2] | pest or weed control at 200 ppm [3] | pest or weed control at 200 ppm [4] | mortality at 200 ppm [7] | pest or weed control at 200 ppm [5] | pest or weed control at 200 ppm [6]

O=S(=O)(CSc1ccc(C2=NO[C@@](c3cc(Cl)cc(Cl)c3)(C(F)(F)F)C2)cc1Br)NCC(F)(F)F [Compound B2, 1-[2-bromo-4-[(5S)-5-(3,5-dichlorophenyl)-5-(trifluoromethyl)-4H-isoxazol-3-yl]phenyl]sulfanyl-N-(2,2,2-trifluoroethyl)-methanesulfonamide]
≥ 80%: pest or weed control at 200 ppm [1] | pest or weed control at 200 ppm [2] | pest or weed control at 200 ppm [3] | pest or weed control at 200 ppm [4] | pest or weed control at 200 ppm [5] | pest or weed control at 200 ppm [6]

O=S(=O)(CSc1ccc(C2=NO[C@@](c3cc(Cl)cc(Cl)c3)(C(F)(F)F)C2)cc1Br)NC1CC1 [Compound B3, 1-[2-bromo-4-[(5S)-5-(3,5-dichlorophenyl)-5-(trifluoromethyl)-4H-isoxazol-3-yl]phenyl]sulfanyl-N-cyclopropyl-methanesulfonamide]
≥ 80%: pest or weed control at 200 ppm [1] | pest or weed control at 200 ppm [2] | pest or weed control at 200 ppm [3] | pest or weed control at 200 ppm [4] | pest or weed control at 200 ppm [5] | pest or weed control at 200 ppm [6]

CC(C)NS(=O)(=O)CSc1ccc(C2=NO[C@@](c3cc(Cl)cc(Cl)c3)(C(F)(F)F)C2)cc1Br [Compound B4, 1-[2-bromo-4-[(5S)-5-(3,5-dichlorophenyl)-5-(trifluoromethyl)-4H-isoxazol-3-yl]phenyl]sulfanyl-N-isopropyl-methanesulfonamide]
≥ 80%: pest or weed control at 200 ppm [1] | pest or weed control at 200 ppm [2] | pest or weed control at 200 ppm [3] | pest or weed control at 200 ppm [4] | mortality at 200 ppm [7] | pest or weed control at 200 ppm [5] | pest or weed control at 200 ppm [6]

C#CCNS(=O)(=O)CSc1ccc(C2=NO[C@@](c3cc(Cl)cc(Cl)c3)(C(F)(F)F)C2)cc1Br [Compound B5, 1-[2-bromo-4-[(5S)-5-(3,5-dichlorophenyl)-5-(trifluoromethyl)-4H-isoxazol-3-yl]phenyl]sulfanyl-N-propargyl-methanesulfonamide]
≥ 80%: pest or weed control at 200 ppm [1] | pest or weed control at 200 ppm [2] | pest or weed control at 200 ppm [3] | pest or weed control at 200 ppm [4] | pest or weed control at 200 ppm [5] | pest or weed control at 200 ppm [6]

O=S(=O)(CS(=O)(=O)c1ccc(C2=NOC(c3cc(Cl)cc(Cl)c3)(C(F)(F)F)C2)cc1Br)NC1CC1 (stereo not shown) [Compound B6, 1-[2-bromo-4-[5-(3,5-dichlorophenyl)-5-(trifluoromethyl)-4H-isoxazol-3-yl]phenyl]sulfonyl-N-cyclopropyl-methanesulfonamide]
≥ 80%: pest or weed control at 200 ppm [1] | pest or weed control at 200 ppm [2] | pest or weed control at 200 ppm [3] | pest or weed control at 200 ppm [4] | pest or weed control at 200 ppm [5] | pest or weed control at 200 ppm [6]

CCN(CC)S(=O)(=O)CSc1ccc(C2=CSC(c3cc(Cl)cc(Cl)c3)(C(F)(F)F)C2)cc1Br (stereo not shown) [Compound D1, 1-[2-bromo-4-[2-(3,5-dichlorophenyl)-2-(trifluoromethyl)-3H-thiophen-4-yl]phenyl]sulfanyl-N,N-diethyl-methanesulfonamide]
≥ 80%: pest or weed control at 200 ppm [6]

CCNS(=O)(=O)CSc1ccc(C2=CSC(c3cc(Cl)cc(Cl)c3)(C(F)(F)F)C2)cc1Br (stereo not shown) [Compound D2, 1-[2-bromo-4-[2-(3,5-dichlorophenyl)-2-(trifluoromethyl)-3H-thiophen-4-yl]phenyl]sulfanyl-N-ethyl-methanesulfonamide]
≥ 80%: pest or weed control at 200 ppm [1] | pest or weed control at 200 ppm [2] | pest or weed control at 200 ppm [3] | mortality at 200 ppm [8]
